Experimental data published in patent US12509460B2 (Skyhawk Therapeutics, Inc., priority 2019, dated 2025).
Read-outs that look alike come from different tables or passages of the source.

What was measured:
[1] = test system: MDR1-MDCK cell monolayers; test: Blood-brain-barrier (BBB) penetration potential via MDCK-MDR1 permeability assay
[2] = test system: SMN protein in spinal muscular atrophy (SMA) patient fibroblasts (GM03813, Coriell); test: SMN protein assay, Mesoscale Discovery (MSD); type: cell-based, human; details: read-out: SMN2 protein EC50
Experimental: Example A12: SMN Protein Assay
Compounds are tested on spinal muscular atrophy (SMA) patient fibroblasts (GM03813, Coriell) at doses ranging from 2.5 μM to 0.6 nM. 7000 cells/well are seeded in 96-well plates. Compounds are incubated for 48 hours and the cells were lysed with 100 μL of lysis buffer. 20 μL of lysate is used for SMN protein measurement by Mesoscale Discovery (MSD) assay developed by PharmOptima (Michigan). A standard curve prepared with SMN protein ranging from 1 μg/ml to 19.5 pg/ml is used in each MSD plate to calculate the absolute SMN protein amount in each sample.

[3] = test system: mHTT protein in GM04724 (CAG 70/20) Huntington's disease patient lymphoblast cells; test: mHTT protein assay, 2B7-MW1 assay via Mesoscale Discovery (MSD); type: cell-based, human
Experimental: Example A10: mHTT Protein Assay
Compounds are tested on GM04724 (CAG 70/20) Huntington's disease patient lymphoblast cells at doses ranging from 10 μM to 0.6 nM. 4,500 cells/well are seeded in 384 well plates. One plate replica is carried out for parallel viability testing by CellTiter Glo (CTG). Compounds are incubated for 48 hours. mHTT protein levels are assessed by the 2B7-MW1 assay via Mesoscale Discovery (MSD) as previously reported (Macdonald et al., 2014). The antibody pair is comprised of previously characterized monoclonals (2B7 and MW1) interrogating two regions for HTT conformation and biological properties: the N, 17 domain and the polyQ domain (Baldo et al., 2012; Ko et., 2001). 2B7-MW1 is […] specific levels of HTT at the time of treatment. 2B7-MW1 is dependent on polyQ expansion (e.g., the higher the expansion the higher the signal) and on mHTT size (e.g., a similar polyQ will give higher signal with smaller HTT size). The viability readout is carried out by CTG according to the manufacturer's instructions.

[4] = test system: SMN FL and SMN Δ7 in spinal muscular atrophy (SMA) patient fibroblasts (GM03813, Coriell); test: Quantitative splicing assay (SMN), qPCR; type: cell-based, human; details: read-out: SMN2 Splicing FL EC50
Experimental: Spinal muscular atrophy (SMA) patient fibroblasts (GM03813, Coriell) are plated in 96-well plates at 50,000 cells/well. […] Treated cells are lysed and cDNA synthesized using the Fast Advanced Cells-to-Ct kit (Thermofisher A35378) according to the manufacturer's instructions. 2 μL of each cDNA are used in qPCR reactions. […] Reactions are run in a Quant Studio 6 qPCR instrument with default settings.

MDR1 (P-gp) [5] = test: Blood-brain-barrier (BBB) penetration potential via MDCK-MDR1 permeability assay; details: dog; for Papp A→B at 120 min, 5 μM: MDCK-MDR1, pH 7.4, MDCK-MDR1: Papp A-B; for Papp B→A at 120 min, 5 μM: MDCK-MDR1, pH 7.4, MDCK-MDR1: Papp B-A; for efflux ratio at 120 min, 5 μM: MDCK-MDR1, pH 7.4, MDCK-MDR1: Efflux
MDR1 = test: as above; details: dog, MDCK-MDR1, pH 7.4, MDCK-MDR1: Efflux
[6] = test system: MDR1-MDCK cell monolayers; details: dog, MDCK-MDR1, 120 min, 5 μM, pH 7.4
MDR1 (P-gp) [7] = test: in vitro; details: dog, MDCK-MDR1, pH 7.4
[8] = SMA patient fibroblasts GM03813, 48 hours, MSD
[9] = GM04724 Huntington's disease patient lymphoblasts
[10] = Homo sapiens, Fibroblast, 24 h, SMA patient fibroblasts GM03813, 24 h, qPCR
[11] = SMA patient fibroblasts (GM03813), 48 hours
[12] = GM04724 (CAG 70/20) Huntington's disease patient lymphoblasts
[13] = Homo sapiens, Fibroblast, 24 h, SMA patient fibroblasts (GM03813), 24 h

Structure (SMILES) | MDCK-MDR1: % Recov A-B ([1]; A-B direction) [%] | MDCK-MDR1: % Recov B-A ([1]; B-A direction) [%] | EC50 [2, 8] [nM] | Papp A→B at 120 min, 5 μM (MDR1 (P-gp) [5]; A-B direction) [×10⁻⁶ cm/s] | Papp B→A at 120 min, 5 μM (MDR1 (P-gp) [5]; B-A direction) [×10⁻⁶ cm/s] | EC50 [4, 10] [nM] | Papp A→B at 120 min, 5 μM (MDR1 (P-gp) [5]; A-B) [×10⁻⁶ cm/s] | Papp B→A at 120 min, 5 μM (MDR1 (P-gp) [5]; B-A) [×10⁻⁶ cm/s] | MDCK-MDR1: % Recov A-B ([1]; A-B) [%] | MDCK-MDR1: % Recov B-A ([1]; B-A) [%] | EC50 [2, 11] [nM] | also measured
CN(c1ccc(-c2cc3cnccc3cc2O)nn1)[C@@H]1C[C@H]2CC[C@H](N2)[C@@H]1F (single isomer, unassigned) [Compound 7B] | 69 | 89 | 0.01 to 15 |  |  |  |  |  |  |  |  | MDCK-MDR1: Papp A-B ([1]; A-B direction): 4.27 10^−6, cm/s; MDCK-MDR1: Papp B-A ([1]; B-A direction): 36.1 10^−6, cm/s; MDCK-MDR1: Efflux ([1]; efflux ratio): 8; EC50 [3, 9]: 51 to 100 nM; EC50 ([4]; SMA patient fibroblasts GM03813, 24 h, qPCR): 51 to 100 nM
CN(c1ccc(-c2cc(F)c(-c3ccn(C)c(=O)c3)cc2O)nn1)[C@@H]1C[C@H]2CC(F)(F)[C@@H](C1)N2 [Compound 22A, 4-(4-(6-(((1S,3R,5R)-6,6-difluoro-8-azabicyclo[3.2.1]octan-3-yl)(methyl)amino)pyridazin-3-yl)-2-fluoro-5-hydroxyphenyl)-1-methylpyridin-2(1H)-one] | 86 | 94 | 0.01 to 15 | 1.82 | 80.9 | 0.01 to 15 |  |  |  |  |  | efflux ratio at 120 min, 5 μM (MDR1; efflux ratio): 45
CN(c1ccc(-c2cc3ncccc3cc2O)nn1)[C@@H]1C[C@H]2CC(F)(F)[C@@H](C1)N2 [Compound 46A, 7-(6-(((1S,3R,5R)-6,6-difluoro-8-azabicyclo[3.2.1]octan-3-yl)(methyl)amino)pyridazin-3-yl)quinolin-6-ol] | 68 | 89 | 16 to 50 | 31.7 | 29.2 | 501 to 10000 |  |  |  |  |  | efflux ratio at 120 min, 5 μM (MDR1 (P-gp) [5]; efflux ratio): 1; EC50 [3, 9]: 16 to 50 nM
CN(c1ccc(-c2cc3ncccc3cc2O)nn1)[C@H]1C[C@@H]2CC(F)(F)[C@H](C1)N2 [Compound 46B, 7-(6-(((1R,3S,5S)-6,6-difluoro-8-azabicyclo[3.2.1]octan-3-yl)(methyl)amino)pyridazin-3-yl)quinolin-6-ol] | 68 | 86 | 16 to 50 | 32 | 31.6 | 101 to 500 |  |  |  |  |  | efflux ratio at 120 min, 5 μM (MDR1 (P-gp) [5]; efflux ratio): 1; EC50 [3, 9]: 101 to 500 nM
CN(c1ccc(-c2cc3c(F)cn(C)c(=O)c3cc2O)nn1)[C@@H]1C[C@H]2CC[C@H](N2)[C@@H]1F [Compound 54A, 4-fluoro-6-(6-(((1S,2S,3R,5R)-2-fluoro-8-azabicyclo[3.2.1]octan-3-yl)(methyl)amino)pyridazin-3-yl)-7-hydroxy-2-methylisoquinolin-1(2H)-one] | 108 | 115 | 0.01 to 15 | 3.54 | 82.6 | 16 to 50 |  |  |  |  |  | efflux ratio at 120 min, 5 μM (MDR1; efflux ratio): 23
CN(c1ccc(-c2cc3c(F)cn(C)c(=O)c3cc2O)nn1)[C@H]1C[C@@H]2CC[C@@H](N2)[C@H]1F [Compound 54B, 4-fluoro-6-(6-(((1R,2R,3S,5S)-2-fluoro-8-azabicyclo[3.2.1]octan-3-yl)(methyl)amino)pyridazin-3-yl)-7-hydroxy-2-methylisoquinolin-1(2H)-one] | 99 | 107 | 0.01 to 15 | 2.28 | 61.5 | 0.01 to 15 |  |  |  |  |  | efflux ratio at 120 min, 5 μM (MDR1; efflux ratio): 27
CN(c1ccc(-c2cc3ncn(C)c(=O)c3cc2O)nn1)[C@@H]1C[C@H]2CC[C@@H]([C@@H]1F)N2C [Compound 101A, 7-(6-(((1S,2S,3R,5R)-2-fluoro-8-methyl-8-azabicyclo[3.2.1]octan-3-yl)(methyl)amino)pyridazin-3-yl)-6-hydroxy-3-methylquinazolin-4(3H)-one] |  |  |  |  |  |  | 2.81 | 72.6 | 101 | 109 | 51 to 100 | efflux ratio at 120 min, 5 μM (MDR1): 26; EC50 [3, 12]: 101 to 500 nM
Cc1nc2cc(-c3ccc(N(C)[C@@H]4C[C@H]5CC[C@H](N5)[C@@H]4F)nn3)c(O)cc2c(=O)n1CC(F)(F)F [Compound 113A, 7-(6-(((1S,2S,3R,5R)-2-fluoro-8-azabicyclo[3.2.1]octan-3-yl)(methyl)amino)pyridazin-3-yl)-6-hydroxy-2-methyl-3-(2,2,2-trifluoroethyl)quinazolin-4(3H)-one] |  |  |  |  |  |  | 0.2 | 66.9 | 96 | 99 | 0.01 to 15 | efflux ratio at 120 min, 5 μM (MDR1): 333; mHTT protein EC50 [3, 12]: E (501 ≤ E ≤ 10.000)
CN(c1ccc(-c2cc3ccncc3cc2O)nn1)[C@H]1C[C@@H]2CC(F)(F)[C@H](C1)N2 [Compound 125B, 6-(6-(((1R,3S,5S)-6,6-difluoro-8-azabicyclo[3.2.1]octan-3-yl)(methyl)amino)pyridazin-3-yl)isoquinolin-7-ol] |  |  |  |  |  |  | 15.6 | 53.2 | 67 | 81 | 16 to 50 | efflux ratio at 120 min, 5 μM (MDR1 (P-gp) [5]): 3; EC50 [3, 12]: 51 to 100 nM; EC50 [4, 13]: 16 to 50 nM
CN(c1ccc(-c2cc3cnccc3cc2O)nn1)[C@@H]1C[C@H]2CC(F)(F)[C@@H](C1)N2 [Compound 126A, 7-(6-(((1S,3R,5R)-6,6-difluoro-8-azabicyclo[3.2.1]octan-3-yl)(methyl)amino)pyridazin-3-yl)isoquinolin-6-ol] |  |  |  |  |  |  | 13.7 | 35.3 | 80 | 92 | 0.01 to 15 | efflux ratio at 120 min, 5 μM (MDR1 (P-gp) [5]): 3; EC50 [3, 12]: 51 to 100 nM; EC50 [4, 13]: 16 to 50 nM
CN(c1ccc(-c2cc3cnccc3cc2O)nn1)[C@H]1C[C@@H]2CC(F)(F)[C@H](C1)N2 [Compound 126B, 7-(6-(((1R,3S,5S)-6,6-difluoro-8-azabicyclo[3.2.1]octan-3-yl)(methyl)amino)pyridazin-3-yl)isoquinolin-6-ol] |  |  |  |  |  |  |  |  |  |  | 101 to 500 | MDCK-MDR1: % Recov A-B [6]: 75%; MDCK-MDR1: % Recov B-A [6]: 88%; Papp A→B at 120 min, 5 μM (MDR1 (P-gp) [7]): 12.6 ×10⁻⁶ cm/s; Papp B→A at 120 min, 5 μM (MDR1 (P-gp) [7]): 39.4 ×10⁻⁶ cm/s; efflux ratio at 120 min, 5 μM (MDR1 (P-gp) [7]): 3; mHTT protein EC50 [3, 12]: E (501 ≤ E ≤ 10.000)
